Assay results published in US20220282271A1, “HERBICIDE RESISTANT PLANTS AND METHODS OF MAKING AND USING” (OFFICE OF INNOVATION ADVANCEMENT AND COMMERCIALIZATION, priority 2019, published 2022).
Read-outs that look alike come from different tables or passages of the source.

Assays:
[1] = tested on: Eleusine indica biotypes (S, R1, R2); assay: Herbicide rate screening assay (greenhouse, foliar-applied, visual injury); type: in vivo; details: for I50, estimated rate required to reduce Eleusine indica biotype by 50% (Visual Control/Injury) / I90, estimated rate required to reduce Eleusine indica biotype by 90% (Visual Control/Injury): injury scores 14 days after treatment; for Parameter estimate a of sigmoidal model y = a/(1 + exp(−(x − x0)/b)) for percent injury / Parameter estimate b of sigmoidal model y = a/(1 + exp(−(x − x0)/b)) for percent injury / Parameter estimate x0 of sigmoidal model y = a/(1 + exp(−(x − x0)/b)) for percent injury: x = log-transformed herbicide rate (kg/ha), 14 DAT
From the text: Three E. indica biotypes from different locations were used in this study. The R1 biotype was collected in Country Club of Virginia, Richmond, Va., and the R2 biotype was from River Bend Golf, New Bern, N.C. These two biotypes were previous confirmed resistant to preemergence application of oxadiazon, but have not been screened to other PPO inhibitors. The S biotype was collected from the Alabama Agricultural Experiment Station, Plant Breeding Unit, Tallassee, Ala., which was confirmed susceptible to PPO inhibitors. Seeds of the mature plants were harvested, air dried and stored in the 4° C. freezer until planted in the greenhouse.
Greenhouse conditions were 30±3° C. at day/night temperature and ˜70% average relative humidity. The E. indica seeds were placed on the soil surface and lightly covered with sand in 28 cm*20 cm flats and watered as needed daily to ensure germination. Two weeks after emergence, seedlings were separated and transplanted to in individual 10-cm pots (volumes=0.5 L). Pots were filled with surface horizon of Marvyn sandy loam (fine-loamy, kaolinitic, thermic Typic Kanhapludults) soil with pH 6.4 and 1.2% organic matter. The plants were irrigated three times daily for 2 min with overhead irrigation and fertilized once at one week after transplanting at approximately 50 kg N ha^−1 with Scott's Miracle-Gro All-Purpose fertilizer (The Scotts Miracle-Gro Co. Marysville, Ohio). Plants were 5-10 cm in height with 3-5 tillers in size at the time of herbicide treatment.
Herbicide treatments were foliar-applied at 280 L/ha using an enclosed spray chamber with a single 8002E nozzle (TeeJet Spray Systems Co, Wheaton, Ill.) at 32 PSI. Four herbicides were selected for the experiment: oxadiazon (Ronstar FLO, Bayer Environmental Sci., Research Triangle Park, N.C.), sulfentrazone (Dismiss, FMC Corporation, Philadelphia, Pa.), flumioxazin (Sureguard, Valent Corp., Walnut Creek, Calif.) and lactofen (Cobra, Valent Corp., Walnut Creek, Calif.). All the herbicides are from different herbicide chemical families of PPO inhibitors: oxadiazoles, triazolinone, N-phenylphthalimide and diphenyl ether, respectively. Herbicides were applied at 7 different rates based on each herbicide label rate: oxadiazon ranging from 0.14 to 8.96 kg/ha, sulfentrazone from 0.07 to 4.50 kg/ha, flumioxazin from 0.08 to 5.70 kg/ha, and lactofen from 0.029 to 1.75 kg/ha. A non-treated control (0 kg/ha) was included. 192 plants of each biotype were tested and experiments were conducted as completely random design, three replications for two runs.
The visual injury rating scores per plant at 14 days after treatment (DAT) were recorded, where the visual injury rating scores were based on a 0 to 100 scale, which 0 is equated to no phytotoxicity and 100 is equated to complete control. Data subjected to ANOVA analysis at a significance level of P<0.05 using the PROC GLM procedure of SAS 9.4 (SAS Institute Inc., Cary, N.C.). All the herbicide rates were log transformed to make equal spacing between the herbicide treatments in order to facilitate regression analysis. The non-treated control was transformed to equal spacing based on the log rates of each herbicide, respectively. Data were fitted to a sigmoidal model using SigmaPlot 10.2 (Systat Software Inc., London, UK) using a sigmoidal function (Equation 1).
y=a/(1+e^(−((x−x0)/b))) (1)
In this fit sigmoidal model, where y represents E. indica visual damage relative to non-treated control (%), x represents the log-transformed herbicide rates (kg/ha), three parameters (a, b, x0) represents the y intercept.

[2] = target: T1, recombinant wild-type E. indica PPO1 (Eleusine indica, UniProt A0A6G5XNV7); assay: In vitro PPO enzyme activity inhibition, wild-type PPO1; type: biochemical; details: for inhibition at 10 µM / Wild-type E. indica PPO1 % inhibition: highest herbicide concentration 10^−5 M
T1 sequence (A0A6G5XNV7 1-529): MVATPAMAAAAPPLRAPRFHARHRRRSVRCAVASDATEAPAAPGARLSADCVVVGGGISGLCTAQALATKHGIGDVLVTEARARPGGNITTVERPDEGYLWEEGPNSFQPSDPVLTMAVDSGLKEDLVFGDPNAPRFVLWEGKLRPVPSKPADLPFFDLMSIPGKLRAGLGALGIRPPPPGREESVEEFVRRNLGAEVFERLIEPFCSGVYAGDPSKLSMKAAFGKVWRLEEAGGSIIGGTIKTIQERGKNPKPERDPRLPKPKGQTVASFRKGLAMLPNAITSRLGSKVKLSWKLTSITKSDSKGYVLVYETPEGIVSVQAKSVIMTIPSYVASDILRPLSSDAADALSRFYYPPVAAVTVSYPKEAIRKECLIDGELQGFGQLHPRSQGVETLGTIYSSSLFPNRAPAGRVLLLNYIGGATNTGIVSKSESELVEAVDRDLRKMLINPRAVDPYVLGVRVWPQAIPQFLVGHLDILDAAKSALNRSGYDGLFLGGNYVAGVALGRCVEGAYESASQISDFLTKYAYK
From the text: Effects of A212T substitution were studied using the E. indica backbone. The wild-type E. indica PPO1 and the E. indica PPO1 A212T variants were synthesized de novo and subcloned into pRSetB plasmid (Invitrogen, Carlsbad, Calif.). The complete description of expression and purification of E. indica PPO1 and E. indica PPO1 A212T variant proteins were referenced to the method described for PPO2 by Rangani et al. (2019, Frontiers in Plant Sci., 10:568). […] Oxadiazon, sulfentrazone, saflufenacil and lactofen are from the class of oxadiazole, triazolinone, pyrimidinedione, and diphenyl ether, respectively. Flumioxazin and trifludimoxazin are from the same chemical family, N-phenylphthalimide. […] The assay was replicated twice.

[3] = target: T2, recombinant variant E. indica PPO1 A212T (Eleusine indica, UniProt A0A6G5XNV7, A212T); assay: In vitro PPO enzyme activity inhibition, variant PPO1 A212T; type: biochemical; details: for inhibition at 10 µM: read-out: Variant E. indica PPO1 A212T % inhibition
T2 sequence (A0A6G5XNV7 entry or part of it A212T): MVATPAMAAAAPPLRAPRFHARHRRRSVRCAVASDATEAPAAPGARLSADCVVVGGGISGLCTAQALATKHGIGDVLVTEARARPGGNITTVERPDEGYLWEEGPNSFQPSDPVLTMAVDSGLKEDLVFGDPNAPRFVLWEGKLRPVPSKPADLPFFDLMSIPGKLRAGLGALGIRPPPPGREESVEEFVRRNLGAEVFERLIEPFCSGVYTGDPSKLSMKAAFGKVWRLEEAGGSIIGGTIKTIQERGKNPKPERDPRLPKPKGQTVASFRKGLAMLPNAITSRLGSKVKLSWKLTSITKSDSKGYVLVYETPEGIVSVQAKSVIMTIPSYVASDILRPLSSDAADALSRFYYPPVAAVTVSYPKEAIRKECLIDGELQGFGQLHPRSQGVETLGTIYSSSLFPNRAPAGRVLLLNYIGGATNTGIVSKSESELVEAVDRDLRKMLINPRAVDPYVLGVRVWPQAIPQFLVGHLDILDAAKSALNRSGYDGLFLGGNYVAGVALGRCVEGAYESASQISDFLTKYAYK
From the text: Effects of A212T substitution were studied using the E. indica backbone. The wild-type E. indica PPO1 and the E. indica PPO1 A212T variants were synthesized de novo and subcloned into pRSetB plasmid (Invitrogen, Carlsbad, Calif.). The complete description of expression and purification of E. indica PPO1 and E. indica PPO1 A212T variant proteins were referenced to the method described for PPO2 by Rangani et al. (2019, Frontiers in Plant Sci., 10:568). Six PPO inhibitors, belonging to five different chemical families, were evaluated on the PPO enzyme activity at a concentrations ranging from 5.00×10^−5M to 5.12×10^−12M. Oxadiazon, sulfentrazone, saflufenacil and lactofen are from the class of oxadiazole, triazolinone, pyrimidinedione, and diphenyl ether, respectively. Flumioxazin and trifludimoxazin are from the same chemical family, N-phenylphthalimide. […] The assay was replicated twice.

[4] = target: T2, recombinant variant E. indica PPO1 A212T; assay: as above; type: biochemical; details: highest herbicide concentration 10^−5 M
[5] = recombinant enzyme, in vitro, read-out: Wild-type E. indica PPO1 sensitivity [IC50]

| SMILES | I50, estimated rate required to reduce Eleusine indica biotype by 50% (Visual Control/Injury) ([1]; R1 biotype) [kg ha^−1] | I90, estimated rate required to reduce Eleusine indica biotype by 90% (Visual Control/Injury) ([1]; R1 biotype) [kg ha^−1] | Parameter estimate a of sigmoidal model y = a/(1 + exp(−(x − x0)/b)) for percent injury ([1]; R1 biotype) | Parameter estimate b of sigmoidal model y = a/(1 + exp(−(x − x0)/b)) for percent injury ([1]; R1 biotype) | Parameter estimate x0 of sigmoidal model y = a/(1 + exp(−(x − x0)/b)) for percent injury ([1]; R1 biotype) | I50, estimated rate required to reduce Eleusine indica biotype by 50% (Visual Control/Injury) ([1]; R2 biotype) [kg ha^−1] | I90, estimated rate required to reduce Eleusine indica biotype by 90% (Visual Control/Injury) ([1]; R2 biotype) [kg ha^−1] | Parameter estimate a of sigmoidal model y = a/(1 + exp(−(x − x0)/b)) for percent injury ([1]; R2 biotype) | Parameter estimate b of sigmoidal model y = a/(1 + exp(−(x − x0)/b)) for percent injury ([1]; R2 biotype) | Parameter estimate x0 of sigmoidal model y = a/(1 + exp(−(x − x0)/b)) for percent injury ([1]; R2 biotype) | I50, estimated rate required to reduce Eleusine indica biotype by 50% (Visual Control/Injury) ([1]; S biotype) [kg ha^−1] | I90, estimated rate required to reduce Eleusine indica biotype by 90% (Visual Control/Injury) ([1]; S biotype) [kg ha^−1] | Parameter estimate a of sigmoidal model y = a/(1 + exp(−(x − x0)/b)) for percent injury ([1]; S biotype) | Parameter estimate b of sigmoidal model y = a/(1 + exp(−(x − x0)/b)) for percent injury ([1]; S biotype) | Parameter estimate x0 of sigmoidal model y = a/(1 + exp(−(x − x0)/b)) for percent injury ([1]; S biotype) | IC50 [2] [nM] | inhibition at 10 µM [2] [%] | IC50 [3] [nM] | inhibition at 10 µM [3] [%] | Wild-type E. indica PPO1 % inhibition [2] [%] | other results |
| --- | --- | --- | --- | --- | --- | --- | --- | --- | --- | --- | --- | --- | --- | --- | --- | --- | --- | --- | --- | --- | --- |
| Cc1nn(-c2cc(NS(C)(=O)=O)c(Cl)cc2Cl)c(=O)n1C(F)F [Sulfentrazone, sulfentrazone] | 0.15 | 0.32 | 95.12 | 0.12 | −0.84 | 0.18 | 0.63 | 100.90 | 0.25 | −0.73 | 0.08 | 0.19 | 98.21 | 0.16 | −1.10 | 275 | > 90 | 1870 | 76 | – | – |
| CCOC(=O)C(C)OC(=O)c1cc(Oc2ccc(C(F)(F)F)cc2Cl)ccc1[N+](=O)[O-] (stereo not drawn) [Lactofen, lactofen] | 0.04 | 0.51 | 84.65 | 0.29 | −1.44 | 0.06 | 0.50 | 89.20 | 0.30 | −1.31 | 0.03 | 0.17 | 90.29 | 0.13 | −1.52 | 26.4 | > 90 | 362 | > 90 | >90 | Variant E. indica PPO1 A212T % inhibition [4]: >90% |
| C#CCN1C(=O)C(F)(F)Oc2cc(F)c(-n3c(=O)n(C)c(=S)n(C)c3=O)cc21 [Trifludomoxazin, trifludimoxazin] | – | – | – | – | – | – | – | – | – | – | – | – | – | – | – | – | – | – | – | >90 | IC50 [2, 5]: 17.1 nM; IC50 ([3]; recombinant enzyme, in vitro, read-out: Variant E. indica PPO1 A212T sensitivity [IC50]): 26.5 nM; Variant E. indica PPO1 A212T % inhibition [4]: >90% |
| CC(C)N(C)S(=O)(=O)NC(=O)c1cc(-n2c(=O)cc(C(F)(F)F)n(C)c2=O)c(F)cc1Cl [Saflufenacil, saflufenacil] | – | – | – | – | – | – | – | – | – | – | – | – | – | – | – | – | > 90 | 449 | > 90 | – | IC50 [2, 5]: 19.4 nM |
| C#CCN1C(=O)COc2cc(F)c(N3C(=O)C4=C(CCCC4)C3=O)cc21 [Flumioxazin, flumioxazin] | 0.08 | 0.10 | 96.53 | 0.04 | −1.11 | 0.08 | 0.10 | 96.81 | 0.04 | −1.11 | 0.08 | 0.09 | 98.00 | 0.02 | −1.09 | 16.7 | > 90 | 13.4 | > 90 | >90 | Variant E. indica PPO1 A212T % inhibition [4]: >90% |
